From PMC4459817, “Vasculotide reduces endothelial permeability and tumor cell extravasation in the absence of binding to or agonistic activation of Tie2” (EMBO Molecular Medicine, 2015)

Test system: CMPTX-labeled tumor cells across HMVEC-LBl
Test: modified Boyden chamber, trans-endothelial tumor cell migration, HMVEC-LBl
Assay type: cell-based, human
Conditions: 20 h, Fig1B, C
Description: ECs were first treated with Vasculotide (VT), PBS (vehicle/negative control), Ang1 (positive control), PEG-Cys (polyethylene glycol backbone), T7c (non-PEGylated CHHHRHSF peptides), or VT in the presence of 100-fold molar excess of T7c. The concentrations used, 10–20 ng/mL VT and 200–400 ng/mL Ang1, are estimated molar equivalents (0.71–1.43 nM). Thirty minutes later, ECs were stimulated with thrombin, 0.1% BSA (vehicle/negative control), or EDTA (positive control). Another 30mins later, the amount of FITC-dextran diffusion into the lower chambers (A, D) provides a measure of endothelial permeability. CMTPX-labeled tumor cells (TCs) were then dispensed into inserts, and the amount of TC fluorescence emitting from the underside of insert membranes after 20 h (B–C) or 28 h (E) reflects the efficiency of trans-endothelial TC migration. […] Three experiments (twice with HMVEC-LBl and once with HMVEC-DBl) were run with n = 3–5 inserts (independent biological replicates) per group and analyzed by two-sampled unpaired t-tests. […]
Endothelial cells (ECs) were grown on cell culture inserts with uncoated 8-μm-pore PET filter membranes to 100% confluency. […] After 30 min of thrombin stimulation or 4–6 h of TC-CM stimulation, FITC fluorescence (ex/em = 490/520 nm) was measured from a 50 μl sample of the lower chamber media. […]

Molecule | thrombin-stimulated migration of CMTPX-labeled TCs
CHHHRHSF [Vasculotide, 4-armed maleimide-functionalized polyethylene glycol (PEG) backbone to link together four cysteine-capped T7 peptides, that is, CHHHRHSF] | trends of reducing thrombin-stimulated migration
recombinant human Ang1 (rhAng1) (ligand, UniProt Q15389 16-498, looked up, angiopoietin-1, human, recombinant; also called angiopoietin-1; source: bought: R&D Systems (named for the Boyden chamber experiments)) HIGCSNQRRSPENSGRRYNRIQHGQCAYTFILPEHDGNCRESTTDQYNTNALQRDAPHVEPDFSSQKLQHLEHVMENYTQWLQKLENYIVENMKSEMAQIQQNAVQNHTATMLEIGTSLLSQTAEQTRKLTDVETQVLNQTSRLEIQLLENSLSTYKLEKQLLQQTNEILKIHEKNSLLEHKILEMEGKHKEELDTLKEEKENLQGLVTRQTYIIQELEKQLNRATTNNSVLQKQQLELMDTVHNLVNLCTKEGVLLKGGKREEEKPFRDCADVYQAGFNKSGIYTIYINNMPEPKKVFCNMDVNGGGWTVIQHREDGSLDFQRGWKEYKMGFGNPSGEYWLGNEFIFAITSQRQYMLRIELMDWEGNRAYSQYDRFHIGNEKQNYRLYLKGHTGTAGKQSSLILHGADFSTKDADNDNCMCKCALMLTGGWWFDACGPSNLNGMFYTAGQNHGKLNGIKWHYFKGPSYSLRSTTMMIRPLDF | counteract thrombin induction of trans-endothelium macromolecular permeability and tumor cell migration
